Assay results reported in patent US8207198B2, “Substituted triazole derivatives as oxytocin antagonists” (Pfizer Inc., priority 2005, dated 2012).

Biological target: T1, oxytocin receptor (CHO-OTR/NFAT-β-Lactamase cells) (Homo sapiens, UniProt P30559)
T1 construct: expressed in transfected cells; host or cells: CHO-OTR cell line, further transfected with the NFAT-β-lactamase reporter construct
T1 sequence (P30559 1-389): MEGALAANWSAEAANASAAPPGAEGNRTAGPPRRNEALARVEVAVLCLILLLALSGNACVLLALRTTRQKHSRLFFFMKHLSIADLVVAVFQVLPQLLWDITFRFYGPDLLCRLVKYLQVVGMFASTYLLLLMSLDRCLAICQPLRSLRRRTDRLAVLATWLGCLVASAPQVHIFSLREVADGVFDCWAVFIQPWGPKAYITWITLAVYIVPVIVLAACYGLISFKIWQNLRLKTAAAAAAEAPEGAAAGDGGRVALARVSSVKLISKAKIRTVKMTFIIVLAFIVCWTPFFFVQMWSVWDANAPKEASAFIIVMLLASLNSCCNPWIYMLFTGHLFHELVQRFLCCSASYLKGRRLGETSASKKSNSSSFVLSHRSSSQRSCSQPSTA
Test: Oxytocin Receptor Beta-Lactamase Assay
Type: cell-based
Details: oxytocin stimulation, read-out: oxytocin antagonist activity, expressed as a Ki value
Method: A suitable assay for determining the oxytocin antagonist activity of a compound is detailed herein below.
Oxytocin Receptor Beta-Lactamase Assay
Cell Culture Cells used are CHO-OTR/NFAT-β-Lactamase. The NFAT-β-lactamase expression construct was transfected into the CHO-OTR cell line and clonal populations were isolated via fluorescence activated cell sorting (FACS). An appropriate clone was selected to develop the assay. Growth Medium 90% F12 Nutrient Mix, 15 mM HEPES 10% FBS 400 μg/ml Geneticin 200 μg/ml Zeocin 2 mM L-Glutamine Assay Media 99.5% F12 Nutrient Mix, 15 mM HEPES 0.5% FBS
Recovery of cells—A vial of frozen cells is thawed rapidly in 37° C. water bath and the cell suspension transferred into a T225 flask with 50 ml of fresh growth medium and then incubated at 37° C., 5% CO2 in an incubator until the cells adhered to the flask Replace media with 50 ml of fresh growth media the following day.
Culturing cells—CHO-OTR-NFAT-βLactamase cells were grown in growth medium. Cells were harvested when they reached 80-90% confluence removing the medium and washing with pre-warmed PBS. PBS was then removed and Trypsin/EDTA added (3 mls for T225 cm^2 flask) before incubating for 5 min in 37° C./5% CO2 incubator. When cells were detached, pre-warmed growth media was added (7 mls for T225 cm^2 flask) and the cells re-suspended and mixed gently by pipetting to achieve single cell suspension. The cells were split into T225 flask at 1:10 (for 3 days growth) and 1:30 (for 5 days growth) ratio in 35 ml growth medium.
Cells grown at 80-90% confluence were harvested and counted. Suspensions of cells at 2×10^5 cells/ml in growth medium were prepared and 30 μl of cells suspension added in 384-well, black clear-bottom plates. A blank plate containing diluents from each reagent was used for background subtraction.
Plates were incubated at 37° C., 5% CO2 overnight. […]
Preparation of 1 ml of 6× Loading Buffer with Enhanced Loading Protocol (this requires scale-up according to number of plates to be screened). • 12 μl of solution A (1 mM CCF4-AM in Dry DMSO) was added to […] of solution B (100 mg/ml Pluronic-F127 in DMSO+0.1% Acetic Acid) and vortexed. • The resulting solution was added to 925 μl of solution C (24% w/w PEG400, 18% TR40 v/v in water). • 75 μl of solution D was added (200 mM probenecid in 200 mM NaOH). • 10 μl of 6× Loading Buffer was added to all wells and incubated for 1.5 hrs-2 hrs at room temperature in the dark. • The plates were read using an LJL Analyst, Excitation 405 nm, Emission 450 nm and 530 nm, gain optimal, lagtime 0.40 μs integration, 4 flashes, bottom reading.

Ki | Compound
4.2 nM | COc1ccc(-n2c(C)nnc2N2CCC(Oc3ccc(F)cc3C)CC2)cn1 [Example 43]
9 nM | COCc1nnc(N2CC(Oc3ccc(F)cc3Cl)C2)n1-c1ccc(OC)nc1 [Example 25]
1.8 nM | COCc1nnc(N2CCC(Oc3cccc(F)c3C)CC2)n1-c1ccc(OC)nc1 [Example 48]
13.8 nM | COCc1nnc(N2CC(Oc3cccc(C)c3C)C2)n1-c1ccc(OC)nc1 [Example 28]
